Test results: ChEMBL document CHEMBL4732201, “Synthesis and preliminary anticancer evaluation of new triazole bisphosphonate-based isoprenoid biosynthesis inhibitors” (Eur J Med Chem, 2021)

Assays:
RPMI-8226 = test: Antiproliferative activity against human RPMI-8226 cells; assay type: functional, cell-based
[1] = target: T1, Geranylgeranyl pyrophosphate synthase (Homo sapiens) (UniProt O95749); test: Inhibition of GGPPS in human MIA PaCa-2 cells assessed as reduction in cell growth at 100 uM incubated for 72 hrs by MTT assay relative to control; assay type: cell-based
T1 sequence (whole entry): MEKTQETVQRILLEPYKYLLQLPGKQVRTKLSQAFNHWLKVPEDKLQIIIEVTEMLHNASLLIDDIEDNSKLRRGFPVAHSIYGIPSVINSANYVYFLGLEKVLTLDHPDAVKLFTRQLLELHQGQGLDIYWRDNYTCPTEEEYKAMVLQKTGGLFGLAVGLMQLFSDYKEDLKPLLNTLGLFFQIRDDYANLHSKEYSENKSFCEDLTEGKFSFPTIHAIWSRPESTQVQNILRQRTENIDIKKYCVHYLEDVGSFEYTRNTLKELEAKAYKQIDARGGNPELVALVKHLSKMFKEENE

[2] = target: T1, Geranylgeranyl pyrophosphate synthase (Homo sapiens); test: Inhibition of GGPPS in human MDA-MB-231 cells assessed as reduction in cell growth at 100 uM incubated for 72 hrs by MTT assay relative to control; assay type: cell-based
[3] = target: T1, Geranylgeranyl pyrophosphate synthase (Homo sapiens); test: Inhibition of GGPPS in human A549 cells assessed as reduction in cell growth at 100 uM incubated for 72 hrs by MTT assay relative to control; assay type: cell-based
[4] = target: T2, Geranylgeranyl pyrophosphate synthase (Homo sapiens, UniProt O95749); test: Inhibition of recombinant human N- terminal His-tagged GGPPS (1 to 300 residues) expressed in Escherichia coli
T2 sequence (O95749 whole entry): T1 sequence (whole entry)

[5] = target: T3, Farnesyl pyrophosphate synthase (Homo sapiens, UniProt P14324); test: Inhibition of FPPS (unknown origin)
T3 sequence (P14324 whole entry): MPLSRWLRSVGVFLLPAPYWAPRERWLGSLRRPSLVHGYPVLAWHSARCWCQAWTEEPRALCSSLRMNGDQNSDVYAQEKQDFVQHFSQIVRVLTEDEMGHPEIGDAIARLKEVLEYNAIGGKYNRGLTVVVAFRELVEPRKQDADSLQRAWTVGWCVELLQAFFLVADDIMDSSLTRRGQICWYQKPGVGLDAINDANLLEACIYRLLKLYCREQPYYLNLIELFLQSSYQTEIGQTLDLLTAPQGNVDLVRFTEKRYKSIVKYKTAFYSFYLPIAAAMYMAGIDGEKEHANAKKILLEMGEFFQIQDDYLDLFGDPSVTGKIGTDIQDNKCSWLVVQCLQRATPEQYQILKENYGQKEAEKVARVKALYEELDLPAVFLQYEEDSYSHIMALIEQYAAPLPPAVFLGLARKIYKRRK

Structure (SMILES) | IC50 [4] [nM] | IC50 [5] [nM] | other results
CC(C)=CCCC(C)=CCCc1cn(CC(O)(P(=O)(O)O)P(=O)(O)O)nn1 |  |  | EC50 (RPMI-8226): 190 nM
CCCCc1cn(CCCC(O)(P(=O)(O)O)P(=O)(O)O)nn1 |  |  | growth inhibition (GI) [1]: < 30%; growth inhibition (GI) [2]: < 30%; growth inhibition (GI) [3]: < 30%
CC(C)=CCC/C(C)=C/CCc1cn(CC(O)(P(=O)(O)O)P(=O)(O)O)nn1 | 173 | 49600 | 
CC(C)=CCC/C(C)=C\CCc1cn(CC(O)(P(=O)(O)O)P(=O)(O)O)nn1 | 75 | 33300 | 
